# Source: patent US20230047788A1, “COMPOSITIONS COMPRISING 5-CHOLESTEN-3, 25-DIOL, 3-SULFATE (25HC3S) OR PHARMACEUTICALLY ACCEPTABLE SALT THEREOF AND AT LEAST ONE CYCLIC OLIGOSACCHARIDE” (Virginia Commonwealth University, priority 2016, published 2023)
# Assay: Effect of phosphate and borate buffers on chemical stability (% remaining, impurity profile), osmolality, pH and appearance of 25HC3S 30 mg/mL in 250 mg/mL HPBCD at 80°C and 60°C
# Type: physicochemical
# Settings: 80° C.
# Protocol: A total of six 25HC3S formulations at 30 mg/mL in 250 mg/mL of 2-hydroxypropyl beta cyclodextrin (HPBCD) containing 10, 20, 50 and 100 mM phosphate buffers at pH 7.5 to 8.1 and 10 and 50 mM borate buffers at pH 9.4 were prepared for the stability study. The chemical stability (measured as % remaining of 25HC3S) and physical stability (osmolality, pH and appearance) of the formulations were monitored under accelerated conditions for up to 7 days at 80° C. and up to 29 days at 60° C.
# Two stock solutions of phosphate buffer at 100 and 200 mM at pH 7.4 and 7.3, respectively and one borate buffer at 100 mM at pH 9.3 were prepared (Tables 22A and 22B) and used for 250 mg/mL HPBCD vehicles preparation (Table 23).
# Approximately 1200 mg each of 25HC3S was weighed into 40 mL volumetric flasks and diluted to volume with the six HPBCD vehicles containing 10-100 mM phosphate buffers or 10 and 50 mM borate buffers, respectively (Table 24). The final concentration of 25HC3S was 30 mg/mL (wt/volume, without adjusting for API purity). Aliquots of 2 mL of each formulation were filled into 2 mL glass vials, stoppered and sealed for stability sample set-up at 60° C. and 80° C. to study the effect of phosphate buffer (pH 7.5-8.1) and borate buffer (pH 9.4) at various buffer concentrations on the stability of the HPBCD formulations (Table 26).
# A 0.5 mL of sample solution was transferred to a 25 mL volumetric flask and QS'ed with methanol/water=95/5 for 25HC3S concentration determination by HPLC. The % remaining of 25HC3S was calculated as follows: […]
smiles,measurement,setting,value
"C[C@H](CCCC(C)(C)O)[C@H]1CC[C@H]2[C@@H]3CC=C4C[C@@H](OS(=O)(=O)[O-])CC[C@]4(C)[C@H]3CC[C@]12C.[Na+] [25HC3S, 5-cholesten-3, 25-diol, 3-sulfate]",% Peak Area Major Thermal Degradant at RRT = 2.64,"day 0, Phosphate 10 mM",0.3 % Peak Area
same,% Peak Area 25-Hydroxy Cholesterol at RRT = 3.67,"day 0, Phosphate 20 mM",0.0 % Peak Area
same,% Peak Area 25HC3S,"day 0, Phosphate 20 mM",99.7 % Peak Area
same,% Peak Area Major Thermal Degradant at RRT = 2.64,"day 0, Phosphate 20 mM",0.3 % Peak Area
same,% Peak Area 25-Hydroxy Cholesterol at RRT = 3.67,"day 0, Phosphate 50 mM",0.0 % Peak Area
same,% Peak Area 25HC3S,"day 0, Phosphate 50 mM",99.7 % Peak Area
same,% Peak Area Major Thermal Degradant at RRT = 2.64,"day 0, Phosphate 50 mM",0.3 % Peak Area
same,% Peak Area 25-Hydroxy Cholesterol at RRT = 3.67,"day 0, Phosphate 100 mM",0.0 % Peak Area
same,% Peak Area 25HC3S,"day 0, Phosphate 100 mM",99.8 % Peak Area
same,% Peak Area Major Thermal Degradant at RRT = 2.64,"day 0, Phosphate 100 mM",0.3 % Peak Area
same,% Peak Area 25-Hydroxy Cholesterol at RRT = 3.67,"day 1, Borate 10 mM",1.0 % Peak Area
same,% Peak Area 25HC3S,"day 1, Borate 10 mM",98.8 % Peak Area
same,% Peak Area Major Thermal Degradant at RRT = 2.64,"day 1, Borate 10 mM",0.3 % Peak Area
same,% Peak Area 25-Hydroxy Cholesterol at RRT = 3.67,"day 1, Borate 50 mM",1.0 % Peak Area
same,% Peak Area 25HC3S,"day 1, Borate 50 mM",98.7 % Peak Area
same,% Peak Area Major Thermal Degradant at RRT = 2.64,"day 1, Borate 50 mM",0.3 % Peak Area
same,% Peak Area 25-Hydroxy Cholesterol at RRT = 3.67,"day 1, Phosphate 10 mM",0.9 % Peak Area
same,% Peak Area 25HC3S,"day 1, Phosphate 10 mM",98.9 % Peak Area
same,% Peak Area Major Thermal Degradant at RRT = 2.64,"day 1, Phosphate 10 mM",0.3 % Peak Area
same,% Peak Area 25-Hydroxy Cholesterol at RRT = 3.67,"day 1, Phosphate 20 mM",1.0 % Peak Area
same,% Peak Area 25HC3S,"day 1, Phosphate 20 mM",98.8 % Peak Area
same,% Peak Area Major Thermal Degradant at RRT = 2.64,"day 1, Phosphate 20 mM",0.3 % Peak Area
same,% Peak Area 25-Hydroxy Cholesterol at RRT = 3.67,"day 1, Phosphate 50 mM",1.0 % Peak Area
same,% Peak Area 25HC3S,"day 1, Phosphate 50 mM",98.9 % Peak Area
same,% Peak Area Major Thermal Degradant at RRT = 2.64,"day 1, Phosphate 50 mM",0.2 % Peak Area
same,% Peak Area 25-Hydroxy Cholesterol at RRT = 3.67,"day 1, Phosphate 100 mM",0.9 % Peak Area
same,% Peak Area 25HC3S,"day 1, Phosphate 100 mM",98.8 % Peak Area
same,% Peak Area Major Thermal Degradant at RRT = 2.64,"day 1, Phosphate 100 mM",0.3 % Peak Area
same,% Peak Area 25-Hydroxy Cholesterol at RRT = 3.67,"day 2, Borate 10 mM",1.9 % Peak Area
same,% Peak Area 25HC3S,"day 2, Borate 10 mM",97.9 % Peak Area
same,% Peak Area Major Thermal Degradant at RRT = 2.64,"day 2, Borate 10 mM",0.3 % Peak Area
same,% Peak Area 25-Hydroxy Cholesterol at RRT = 3.67,"day 2, Borate 50 mM",2.0 % Peak Area
same,% Peak Area 25HC3S,"day 2, Borate 50 mM",97.8 % Peak Area
same,% Peak Area Major Thermal Degradant at RRT = 2.64,"day 2, Borate 50 mM",0.3 % Peak Area
same,% Peak Area 25-Hydroxy Cholesterol at RRT = 3.67,"day 2, Phosphate 10 mM",1.9 % Peak Area
same,% Peak Area 25HC3S,"day 2, Phosphate 10 mM",97.9 % Peak Area
same,% Peak Area Major Thermal Degradant at RRT = 2.64,"day 2, Phosphate 10 mM",0.3 % Peak Area
same,% Peak Area 25-Hydroxy Cholesterol at RRT = 3.67,"day 2, Phosphate 20 mM",1.9 % Peak Area
same,% Peak Area 25HC3S,"day 2, Phosphate 20 mM",98.0 % Peak Area
same,% Peak Area Major Thermal Degradant at RRT = 2.64,"day 2, Phosphate 20 mM",0.2 % Peak Area
same,% Peak Area 25-Hydroxy Cholesterol at RRT = 3.67,"day 2, Phosphate 50 mM",2.0 % Peak Area
same,% Peak Area 25HC3S,"day 2, Phosphate 50 mM",97.8 % Peak Area
same,% Peak Area Major Thermal Degradant at RRT = 2.64,"day 2, Phosphate 50 mM",0.3 % Peak Area
same,% Peak Area 25-Hydroxy Cholesterol at RRT = 3.67,"day 2, Phosphate 100 mM",2.0 % Peak Area
same,% Peak Area 25HC3S,"day 2, Phosphate 100 mM",97.8 % Peak Area
same,% Peak Area Major Thermal Degradant at RRT = 2.64,"day 2, Phosphate 100 mM",0.3 % Peak Area
same,% Peak Area 25-Hydroxy Cholesterol at RRT = 3.67,"day 3, Borate 10 mM",2.8 % Peak Area
same,% Peak Area 25HC3S,"day 3, Borate 10 mM",97.0 % Peak Area
same,% Peak Area Major Thermal Degradant at RRT = 2.64,"day 3, Borate 10 mM",0.3 % Peak Area
same,% Peak Area 25-Hydroxy Cholesterol at RRT = 3.67,"day 3, Borate 50 mM",3.0 % Peak Area
same,% Peak Area 25HC3S,"day 3, Borate 50 mM",96.9 % Peak Area
same,% Peak Area Major Thermal Degradant at RRT = 2.64,"day 3, Borate 50 mM",0.2 % Peak Area
same,% Peak Area 25-Hydroxy Cholesterol at RRT = 3.67,"day 3, Phosphate 10 mM",4.3 % Peak Area
same,% Peak Area 25HC3S,"day 3, Phosphate 10 mM",95.6 % Peak Area
same,% Peak Area Major Thermal Degradant at RRT = 2.64,"day 3, Phosphate 10 mM",0.2 % Peak Area
same,% Peak Area 25-Hydroxy Cholesterol at RRT = 3.67,"day 3, Phosphate 20 mM",3.5 % Peak Area
same,% Peak Area 25HC3S,"day 3, Phosphate 20 mM",96.4 % Peak Area
same,% Peak Area Major Thermal Degradant at RRT = 2.64,"day 3, Phosphate 20 mM",0.2 % Peak Area
same,% Peak Area 25-Hydroxy Cholesterol at RRT = 3.67,"day 3, Phosphate 50 mM",3.3 % Peak Area
same,% Peak Area 25HC3S,"day 3, Phosphate 50 mM",96.5 % Peak Area
same,% Peak Area Major Thermal Degradant at RRT = 2.64,"day 3, Phosphate 50 mM",0.3 % Peak Area
same,% Peak Area 25-Hydroxy Cholesterol at RRT = 3.67,"day 3, Phosphate 100 mM",3.2 % Peak Area
same,% Peak Area 25HC3S,"day 3, Phosphate 100 mM",96.6 % Peak Area
same,% Peak Area Major Thermal Degradant at RRT = 2.64,"day 3, Phosphate 100 mM",0.3 % Peak Area
same,% Peak Area 25-Hydroxy Cholesterol at RRT = 3.67,"day 7, Borate 10 mM",7.3 % Peak Area
same,% Peak Area 25HC3S,"day 7, Borate 10 mM",92.5 % Peak Area
same,% Peak Area Major Thermal Degradant at RRT = 2.64,"day 7, Borate 10 mM",0.2 % Peak Area
same,% Peak Area 25-Hydroxy Cholesterol at RRT = 3.67,"day 7, Borate 50 mM",6.2 % Peak Area
same,% Peak Area 25HC3S,"day 7, Borate 50 mM",93.6 % Peak Area
same,% Peak Area Major Thermal Degradant at RRT = 2.64,"day 7, Borate 50 mM",0.3 % Peak Area
same,% Peak Area 25-Hydroxy Cholesterol at RRT = 3.67,"day 7, Phosphate 10 mM",27.1 % Peak Area
same,% Peak Area 25HC3S,"day 7, Phosphate 10 mM",72.3 % Peak Area
same,% Peak Area Major Thermal Degradant at RRT = 2.64,"day 7, Phosphate 10 mM",0.7 % Peak Area
same,% Peak Area 25-Hydroxy Cholesterol at RRT = 3.67,"day 7, Phosphate 20 mM",19.8 % Peak Area
same,% Peak Area 25HC3S,"day 7, Phosphate 20 mM",79.9 % Peak Area
same,% Peak Area Major Thermal Degradant at RRT = 2.64,"day 7, Phosphate 20 mM",0.2 % Peak Area
same,% Peak Area 25-Hydroxy Cholesterol at RRT = 3.67,"day 7, Phosphate 50 mM",11.6 % Peak Area
same,% Peak Area 25HC3S,"day 7, Phosphate 50 mM",88.2 % Peak Area
same,% Peak Area Major Thermal Degradant at RRT = 2.64,"day 7, Phosphate 50 mM",0.2 % Peak Area
same,% Peak Area 25-Hydroxy Cholesterol at RRT = 3.67,"day 7, Phosphate 100 mM",9.8 % Peak Area
same,% Peak Area 25HC3S,"day 7, Phosphate 100 mM",90.0 % Peak Area
same,% Peak Area Major Thermal Degradant at RRT = 2.64,"day 7, Phosphate 100 mM",0.2 % Peak Area
